Source: US20260199323A1, “LIGAND COMPOUNDS FOR E3 UBIQUITIN LIGASE, PROTEIN DEGRADERS DEVELOPED ON BASIS OF LIGAND COMPOUNDS, AND USES THEREOF” (GLUETACS THERAPEUTICS (SHANGHAI) CO., LTD., priority 2021, published 2026)
Like-named read-outs stand apart in the source and are kept apart here.

Tests used:
Type in all cases: cell-based, Human
CCRF-CEM = assay: CCK-8 tumor cell proliferation, CCRF-CEM; set-up: IC50 for inhibiting the proliferation of tumor cells, CCRF-CEM: scale not given here; settings: for IC50 for inhibiting the proliferation of tumor cells, CCRF-CEM: 96 h
Description: (§1) The tumor cells used herein were cultured in a cell culture medium listed in table 4 at 37° C. in an incubator with 5% CO2. Prior to experimentation, all cells used were correctly identified by STR profiling, and tested negative for mycoplasma through routine screenings.
(§2) IC50 values of the compounds of the present disclosure (including the compounds in Tables 1 and 3, and compounds of examples) were measured using the Meilun Cell Counting Kit-8 kit from Dalian Meilun Biotech Co., Ltd. Assay details are as follows: tumor cells were seeded in a 96-well plate at a density listed in Table 5. After 24 h, 100 μL of the inoculated cells were treated with 0.5 μL of the compounds of the present disclosure (including the compounds in Tables 1 and 3, and compounds of examples) at 10 different successively decreasing concentrations (starting at the highest concentration of 10 μM; 5-fold serial dilutions). After the cells were treated with the compounds of the present disclosure for a period of time, the cell viability detection reagent was added to the culture medium for cell viability assessment according to the instructions provided with the CCK-8 kit. […] The growth inhibition of the compounds of the present disclosure on cells was plotted by Prism Graphpad software, and the IC50 values of the compounds of the present disclosure were calculated therefrom.

CAL-62 = assay: CCK-8 tumor cell proliferation, CAL-62; set-up: IC50 for inhibiting the proliferation of tumor cells, CAL-62: scale not given here; settings: for IC50 for inhibiting the proliferation of tumor cells, CAL-62: 72 h; for IC50: Homo sapiens, Table 18, FAK inhibitor based, CAL-62, read-out: IC50 inhibiting proliferation of tumor cells, CAL-62
Description: as §1, §2

SR = assay: CCK-8 tumor cell proliferation, SR; settings: for IC50: Homo sapiens, SR, read-out: IC50 inhibiting proliferation of tumor cells, SR
Description: as §1, §2

MDA-MB-231 = assay: CCK-8 tumor cell proliferation, MDA-MB-231; settings: Homo sapiens; Table 18, FAK inhibitor based; MDA-MB-231; read-out: IC50 inhibiting proliferation of tumor cells, MDA-MB-231
Description: as §1, §2

[1] = Table 12, designed based on CDK9 inhibitors

Compound: Cn1ncc(-c2nc(NC3CCN(Cc4cc5c(cc4F)C(=O)N(C4CCC(=O)NC4=O)C5)CC3)ncc2Cl)c1CC1CC1 (stereo not drawn) [GT-04046, 3-(5-((4-((5-chloro-4-(5-(cyclopropylmethyl)-1-methyl-1H-pyrazol-4-yl)pyrimidin-2-yl)amino)piperidin-1-yl)methyl)-6-fluoro-1-oxoisoindolin-2-yl)piperidine-2,6-dione]
- IC50 for inhibiting the proliferation of tumor cells, CCRF-CEM (CCRF-CEM; [1]): A+
- IC50 for inhibiting the proliferation of tumor cells, CAL-62 (CAL-62; [1]): A+

Compound: CNC(=O)c1ccccc1Nc1cc(Nc2cc(C)c(C3CCN(Cc4ccc5c(c4)C(=O)N(C4CCC(=O)NC4=O)C5=O)CC3)cc2OC(C)C)ncc1C(F)(F)F (stereo not drawn) [GT-04083, 2-((2-((4-(1-((2-(2,6-dioxopiperidin-3-yl)-1,3-dioxoisoindolin-5-yl)methyl)piperidin-4-yl)-2-isopropoxy-5-methylphenyl)amino)-5-(trifluoromethyl)pyridin-4-yl)amino)-N-methylbenzamide]
- IC50 (CCRF-CEM; Homo sapiens, Table 18, FAK inhibitor based, CCRF-CEM, read-out: IC50 inhibiting proliferation of tumor cells, CCRF-CEM): 100 to 500 nM

Compound: CNC(=O)c1ccccc1Nc1cc(Nc2ccc(N3CCC(N(C)Cc4cccc5c4CN(C4CCC(=O)NC4=O)C5=O)CC3)cc2OC)ncc1C(F)(F)F (stereo not drawn) [GT-03731, 2-((2-((4-(4-(((2-(2,6-dioxopiperidin-3-yl)-1-oxoisoindolin-4-yl)methyl)(methyl)amino)piperidin-1-yl)-2-methoxyphenyl)amino)-5-(trifluoromethyl)pyridin-4-yl)amino)-N-methylbenzamide]
- IC50 (CAL-62): 500 to 1000 nM
- IC50 (SR; Table 18, FAK inhibitor based): 50 to 100 nM
- IC50 (MDA-MB-231): 1000 to 5000 nM

Compound: Cc1nc2c(F)cc(-c3nc(Nc4ccc(N5CCN(Cc6ccc7c(c6)CN(C6CCC(=O)NC6=O)C7=O)CC5)cn4)ncc3F)cc2n1C(C)C (stereo not drawn) [GT-03688, 3-(5-((4-(6-((5-fluoro-4-(4-fluoro-1-isopropyl-2-methyl-1H-benzo[d]imidazol-6-yl)pyrimidin-2-yl)amino)pyridin-3-yl)piperazin-1-yl)methyl)-1-oxoisoindolin-2-yl)piperidine-2,6-dione]
- IC50 for inhibiting the proliferation of tumor cells, SR (SR; Table 14, designed based on CDK4/6 inhibitors, 72 h): A+

Compound: CN(Cc1ccc2c(c1)CN(C1CCC(=O)NC1=O)C2=O)C1CCN(c2ccc(Nc3ncc(C(F)(F)F)c(NCc4cccc(N(C)S(C)(=O)=O)c4)n3)cc2)CC1 (stereo not drawn) [GT-03677, N-(3-(((2-((4-(4-(((2-(2,6-dioxopiperidin-3-yl)-1-oxoisoindolin-5-yl)methyl)(methyl)amino)piperidin-1-yl)phenyl)amino)-5-(trifluoromethyl)pyrimidin-4-yl)amino)methyl)phenyl)-N-methylmethanesulfonamide]
- IC50 (MDA-MB-231): < 50 nM

Compound: CNC(=O)c1ccccc1Nc1cc(Nc2ccc(N3CCC(N(C)Cc4cc(F)c5c(c4)CN(C4CCC(=O)NC4=O)C5=O)CC3)cc2OC)ncc1C(F)(F)F (stereo not drawn) [GT-03730, 2-((2-((4-(4-(((2-(2,6-dioxopiperidin-3-yl)-7-fluoro-1-oxoisoindolin-5-yl)methyl)(methyl)amino)piperidin-1-yl)-2-methoxyphenyl)amino)-5-(trifluoromethyl)pyridin-4-yl)amino)-N-methylbenzamide]
- IC50 (CAL-62): < 50 nM
- IC50 (SR; Table 18, FAK inhibitor based): < 50 nM
- IC50 (MDA-MB-231): 50 to 100 nM

Compound: Cn1ncc(-c2nc(NC3CCN(Cc4ccc5c(c4F)CN(C4CCC(=O)NC4=O)C5=O)CC3)ncc2Cl)c1CC1CC1 (stereo not drawn) [GT-04045, 3-(5-((4-((5-chloro-4-(5-(cyclopropylmethyl)-1-methyl-1H-pyrazol-4-yl)pyrimidin-2-yl)amino)piperidin-1-yl)methyl)-4-fluoro-1-oxoisoindolin-2-yl)piperidine-2,6-dione]
- IC50 for inhibiting the proliferation of tumor cells, CCRF-CEM (CCRF-CEM; [1]): A+
- IC50 for inhibiting the proliferation of tumor cells, CAL-62 (CAL-62; [1]): A+

Compound: Cc1cnc(Nc2ccc(N3CCC(N4CCN(Cc5ccc6c(c5)CN(C5CCC(=O)NC5=O)C6=O)CC4)CC3)cc2)nc1Nc1cccc(S(=O)(=O)NC(C)(C)C)c1 (stereo not drawn) [GT-03709, N-(tert-butyl)-3-((2-((4-(4-(4-((2-(2,6-dioxopiperidin-3-yl)-1-oxoisoindolin-5-yl)methyl)piperazin-1-yl)piperidin-1-yl)phenyl)amino)-5-methylpyrimidin-4-yl)amino)benzenesulfonamide]
- IC50 (MDA-MB-231): 1000 to 5000 nM

Compound: Cc1sc2c(c1C)C(c1ccc(Cl)cc1)=N[C@@H](CC(=O)NCc1ccc3c(c1)CN(C1CCC(=O)NC1=O)C3=O)c1nnc(C)n1-2 (stereo partly drawn) [GT-03378, 2-((S)-4-(4-chlorophenyl)-2,3,9-trimethyl-6H-thieno[3,2-f][1,2,4]triazolo[4,3-a][1,4]diazepin-6-yl)-N-((2-(2,6-dioxopiperidin-3-yl)-1-oxoisoindolin-5-yl)methyl)acetamide]
- IC50 for inhibiting the proliferation of tumor cells, CCRF-CEM (CCRF-CEM; Table 16, designed based on BET inhibitors): A+

Compound: CN(c1cccc(CNc2nc(Nc3ccc(N4CCC(N5CCN(Cc6ccc7c(c6)CN(C6CCC(=O)NC6=O)C7=O)CC5)CC4)cc3)ncc2C(F)(F)F)c1)S(C)(=O)=O (stereo not drawn) [GT-03678, N-(3-(((2-((4-(4-(4-((2-(2,6-dioxopiperidin-3-yl)-1-oxoisoindolin-5-yl)methyl)piperazin-1-yl)piperidin-1-yl)phenyl)amino)-5-(trifluoromethyl)pyrimidin-4-yl)amino)methyl)phenyl)-N-methylmethanesulfonamide]
- IC50 (MDA-MB-231): < 50 nM

Compound: Cc1cnc(Nc2ccc(N3CCC(N(C)Cc4ccc5c(c4)CN(C4CCC(=O)NC4=O)C5=O)CC3)cc2)nc1Nc1cccc(S(=O)(=O)NC(C)(C)C)c1 (stereo not drawn) [GT-03690, N-(tert-butyl)-3-((2-((4-(4-(((2-(2,6-dioxopiperidin-3-yl)-1-oxoisoindolin-5-yl)methyl)(methyl)amino)piperidin-1-yl)phenyl)amino)-5-methylpyrimidin-4-yl)amino)benzenesulfonamide]
- IC50 (MDA-MB-231): < 50 nM

Compound: CNC(=O)c1ccccc1Nc1cc(Nc2ccc(N3CCC(N(C)Cc4cc5c(cc4F)C(=O)N(C4CCC(=O)NC4=O)C5)CC3)cc2OC)ncc1C(F)(F)F (stereo not drawn) [GT-03729, 2-((2-((4-(4-(((2-(2,6-dioxopiperidin-3-yl)-6-fluoro-1-oxoisoindolin-5-yl)methyl)(methyl)amino)piperidin-1-yl)-2-methoxyphenyl)amino)-5-(trifluoromethyl)pyridin-4-yl)amino)-N-methylbenzamide]
- IC50 (CAL-62): 50 to 100 nM
- IC50 (SR; Table 18, FAK inhibitor based): < 50 nM
- IC50 (MDA-MB-231): 50 to 100 nM

Compound: COc1cc(N2CCC(N(C)Cc3ccc4c(c3)C(=O)N(C3CCC(=O)NC3=O)C4=O)CC2)ccc1Nc1ncc(Cl)c(Nc2ccccc2P(C)(C)=O)n1 (stereo not drawn) [GT-03602, 5-(((1-(4-((5-chloro-4-((2-(dimethylphosphoryl)phenyl)amino)pyrimidin-2-yl)amino)-3-methoxyphenyl)piperidin-4-yl)(methyl)amino)methyl)-2-(2,6-dioxopiperidin-3-yl)isoindoline-1,3-dione]
- IC50 (SR; Table 15, ALK inhibitor based): 50 to 100 nM

Compound: COc1cc(Nc2c(C#N)cnc3cc(OCCCN4CCN(Cc5ccc6c(c5)CN(C5CCC(=O)NC5=O)C6=O)CC4)c(OC)cc23)c(Cl)cc1Cl (stereo not drawn) [GT-02968, 4-((2,4-dichloro-5-methoxyphenyl)amino)-7-(3-(4-((2-(2,6-dioxopiperidin-3-yl)-1-oxoisoindolin-5-yl)methyl)piperazin-1-yl)propoxy)-6-methoxyquinoline-3-carbonitrile]
- IC50 for inhibiting the proliferation of tumor cells, CAL-62 (CAL-62; Table 13, designed based on BCR-ABL inhibitors): A+

Compound: O=C1CCC(N2C(=O)c3ccc(CBr)cc3C2=O)C(=O)N1 (stereo not drawn) [GT-03788]
- IC50 for inhibiting the proliferation of tumor cells, CCRF-CEM (CCRF-CEM; Table 8, designed based on ER inhibitors): A+

Compound: Cn1ncc(-c2nc(NC3CCN(Cc4ccc5c(c4)CN(C4CCC(=O)NC4=O)C5=O)CC3)ncc2Cl)c1CC1CC1 (stereo not drawn) [GT-04044, 3-(5-((4-((5-chloro-4-(5-(cyclopropylmethyl)-1-methyl-1H-pyrazol-4-yl)pyrimidin-2-yl)amino)piperidin-1-yl)methyl)-1-oxoisoindolin-2-yl)piperidine-2,6-dione]
- IC50 for inhibiting the proliferation of tumor cells, CCRF-CEM (CCRF-CEM; [1]): A+
